The results in this text go back to patent publication US20190119282A1, “IMIDAZOPYRIDAZINES USEFUL AS INHIBITORS OF THE PAR-2 SIGNALING PATHWAY” (Vertex Pharmaceuticals Incorporated, priority 2013, published 2019).

Test [1] addresses T1, PAR2 (HT-29 cells, SLIGKV activation) (Homo sapiens, UniProt P55085).
T1 construct: host or cells: HT-29 cells
T1 sequence (P55085 26-397): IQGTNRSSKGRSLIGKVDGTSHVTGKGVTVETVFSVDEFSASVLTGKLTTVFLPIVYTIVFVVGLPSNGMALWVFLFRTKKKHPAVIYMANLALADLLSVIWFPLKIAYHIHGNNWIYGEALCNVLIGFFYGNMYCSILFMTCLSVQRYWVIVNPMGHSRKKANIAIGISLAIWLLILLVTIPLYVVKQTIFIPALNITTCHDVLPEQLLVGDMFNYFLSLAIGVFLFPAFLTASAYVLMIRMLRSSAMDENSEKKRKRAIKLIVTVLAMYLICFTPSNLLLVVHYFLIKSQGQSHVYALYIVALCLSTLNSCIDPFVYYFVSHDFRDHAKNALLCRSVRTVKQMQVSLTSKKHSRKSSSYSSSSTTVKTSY
Put plainly: Ca FLIPR TETRA assay, ANTAGONIST mode, stimulation with 8 μM SLIGKV. Format: cell-based. To be noted: HT-29 cells, antagonist mode, stimulation with 8 μM SLIGKV. An outline of the steps:
(§1)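 Inhibition of activator-evoked Ca2+ flux was recorded on FLIPR Tetra in HT-29 cells after 30 min compound exposure at r.t. A prior read checked whether compounds alone triggered Ca2+ release.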

For test [2], the system named is Thrombin-stimulated Ca2+ response in HT-29 cells. Put plainly: Ca FLIPR TETRA assay, ANTAGONIST mode, stimulation with 1 U/mL Thrombin. To be noted: Homo sapiens; HT-29 cells, antagonist mode, stimulation with 1 U/mL Thrombin. Format: cell-based, human. An outline of the steps:
as §1

The target in test [3] is T2, PAR2 (HT-29 cells, trypsin activation) (Homo sapiens, UniProt P55085).
T2 construct: host or cells: HT-29 cells
T2 sequence (P55085 26-397): T1 sequence (P55085 26-397)
Put plainly: Ca FLIPR TETRA assay, ANTAGONIST mode, stimulation with 3.1 U/mL trypsin. It counts as cell-based. The settings on record: HT-29 cells, antagonist mode, stimulation with 3.1 U/mL trypsin. The procedure, abridged:
as §1

Test [4] concerns UTP-stimulated Ca2+ response in HT-29 cells. The test is described as follows: Ca FLIPR TETRA assay, ANTAGONIST mode, stimulation with 0.6 μM UTP. Format: cell-based, human. The settings on record: Homo sapiens; HT-29 cells, antagonist mode, stimulation with 0.6 μM UTP. An outline of the steps:
as §1

By IC50 is commonly meant the concentration that gives 50% inhibition. Take `CC(C)(C)c1cc(-c2ccc(F)cc2)nn2cc(C(=O)N3CCN(C(=O)c4cncnc4)CC3(C)C)nc12` [Compound I-230]: the IC50 in test [1] was 2.4 nM; in test [2] it was 730 nM; in test [3] it was 5.5 nM; in test [4] it was greater than 1000 nM.
Taken in the same sequence, the figures for `CC(C)(C)c1cc(-c2ccc(F)cc2)nn2cc(C(=O)N3CCN(C(=O)c4ccncn4)CC3(C)C)nc12` [Compound I-231] were 1.1 nM, greater than 1000 nM, 1.6 nM and greater than 1000 nM.
In the case of `CC(CO)N1CCN(C(=O)c2cn3nc(-c4ccc(F)cc4)cc(C(C)(C)C)c3n2)C(C)(C)C1=O` (centres unmarked) [Compound I-233], the IC50 in test [1] was 5 nM; in test [2] it was greater than 1000 nM; in test [3], 6.8 nM; in test [4], greater than 1000 nM.
`CC(C)(C)c1cc(-c2ccc(F)cc2)nn2cc(C(=O)N3CCN(C#N)C(=O)C3(C)C)nc12` [Compound I-234]: the concentration for half-maximal inhibition (IC50) is 0.9 nM in test [1], greater than 1000 nM in test [2], 1.3 nM in test [3] and greater than 1000 nM in test [4].
For the compound `CC(C)(C)c1cc(-c2ccc(F)cc2)nn2cc(C(=O)N3CCN(c4nn[nH]n4)C(=O)C3(C)C)nc12` [Compound I-235], the IC50 in test [1] was 0.7 nM; in test [2] it was greater than 1000 nM; in test [3] it was 1.1 nM; in test [4], 930 nM.
On the same counts, the results for `CC(C)c1cc(-c2ccc(F)cc2)nn2cc(C(=O)N3CCN(C(=O)c4ccncn4)CC3(C)C)nc12` [Compound I-236] are 8.2 nM, greater than 1000 nM, 18.6 nM and greater than 1000 nM.
On the same counts, the results for `CC(C)c1cc(-c2ccc(F)cc2)nn2cc(C(=O)N3CCN(C(=O)c4nc[nH]n4)CC3(C)C)nc12` [Compound I-237] are 5.8 nM, greater than 1000 nM, 14.1 nM and greater than 1000 nM.
On the same counts, the results for `CC(C)c1cc(-c2ccc(F)cc2)nn2cc(C(=O)N3CCN(C(=O)c4ncc[nH]4)CC3(C)C)nc12` [Compound I-238] are 2.5 nM, greater than 1000 nM, 8.5 nM and greater than 1000 nM.
Take `CC(C)c1cc(-c2ccc(F)cc2)nn2cc(C(=O)N3CCN(C(=O)c4ccn[nH]4)CC3(C)C)nc12` [Compound I-239]: the IC50 in test [1] was 3.2 nM; in test [2], greater than 1000 nM; in test [3] it was 6.4 nM; in test [4], greater than 1000 nM.
`CC(C)c1cc(-c2ccc(F)cc2)nn2cc(C(=O)N3CCN(C(=O)C4CC(O)(C(F)(F)F)C4)CC3(C)C)nc12` (centres unmarked) [Compound I-240]: the IC50 was 0.1 nM in test [1], greater than 1000 nM in test [2], 0.3 nM in test [3] and greater than 1000 nM in test [4].
With `Cc1ccc(-c2cc(C(C)C)c3nc(C(=O)N4CCNC(=O)C4(C)C)cn3n2)cc1` [Compound I-242], the 50% inhibitory concentration (IC50) is 5 nM in test [1], greater than 1000 nM in test [2], 7.7 nM in test [3] and greater than 1000 nM in test [4].
As to `CC(C)c1cc(-c2ccc(F)c(F)c2)nn2cc(C(=O)N3CCNC(=O)C3(C)C)nc12` [Compound I-243], the half-inhibitory concentration (IC50) in test [1] was 4.1 nM; in test [2], greater than 1000 nM; in test [3], 8.5 nM; in test [4], greater than 1000 nM.
As to `CC(C)c1cc(-c2ccc(C(F)(F)F)cc2)nn2cc(C(=O)N3CCN(C(=O)[C@H]4C[C@](O)(C(F)(F)F)C4)CC3(C)C)nc12` [Compound I-245], the IC50 in test [1] was 0.3 nM; in test [2], greater than 1000 nM; in test [3] it was 0.6 nM; in test [4], greater than 1000 nM.
On to `CC(C)c1cc(-c2ccc(C(F)(F)F)cc2)nn2cc(C(=O)N3CCN(C(=O)c4ccn[nH]4)CC3(C)C)nc12` [Compound I-246], for which the IC50 is 1.7 nM in test [1], greater than 1000 nM in test [2], 2 nM in test [3] and greater than 1000 nM in test [4].
On to `CC(C)c1cc(-c2ccc(C(F)(F)F)cc2)nn2cc(C(=O)N3CCN(C(=O)c4ccncn4)CC3(C)C)nc12` [Compound I-247], for which the IC50 is 4.3 nM in test [1], greater than 1000 nM in test [2], 7.1 nM in test [3] and greater than 1000 nM in test [4].
`Cn1nnnc1N1CCN(C(=O)c2cn3nc(-c4ccc(F)cc4)cc(C(C)(C)C)c3n2)C(C)(C)C1=O` [Compound I-248]: the IC50 in test [1] is 56.6 nM; in test [2] it was greater than 1000 nM; in test [3], 58.5 nM; in test [4] it was greater than 1000 nM.
On to `CC(C)c1cc(-c2cccc(F)c2)nn2cc(C(=O)N3CCN(C(=O)C(C)(C)O)CC3(C)C)nc12` [Compound I-250], for which the IC50 in test [1] is 57 nM; in test [2], greater than 1000 nM; in test [3], 128 nM; in test [4], greater than 1000 nM.
As to `Cc1ccc(-c2cc(C(C)C)c3nc(C(=O)N4CCN(C(=O)C(C)(C)O)CC4(C)C)cn3n2)cc1F` [Compound I-251], the IC50 in test [1] was 5.8 nM; in test [2], greater than 1000 nM; in test [3], 16.6 nM; in test [4], greater than 1000 nM.
Turning to `CC(C)c1cc(-c2ccccc2)nn2cc(C(=O)N3CCN(C(=O)C(C)(C)O)CC3(C)C)nc12` [Compound I-253], the IC50 was 92 nM in test [1], greater than 1000 nM in test [2], 185 nM in test [3] and greater than 1000 nM in test [4].
Take `Cc1ccc(-c2cc(C(C)C)c3nc(C(=O)N4CCN(C(=O)[C@H]5C[C@](O)(C(F)(F)F)C5)CC4(C)C)cn3n2)cc1` [Compound I-254]: the IC50 is 0.2 nM in test [1], greater than 1000 nM in test [2], 0.3 nM in test [3] and greater than 1000 nM in test [4].
For the compound `Cc1ccc(-c2cc(C(C)C)c3nc(C(=O)N4CCN(C(=O)c5ccn[nH]5)CC4(C)C)cn3n2)cc1` [Compound I-255], the IC50 in test [1] was 3.6 nM; in test [2] it was greater than 1000 nM; in test [3], 3.8 nM; in test [4], greater than 1000 nM.
As to `Cc1ccc(-c2cc(C(C)C)c3nc(C(=O)N4CCN(C(=O)c5ccncn5)CC4(C)C)cn3n2)cc1` [Compound I-256], the IC50 was 6.1 nM in test [1], greater than 1000 nM in test [2], 12.3 nM in test [3] and greater than 1000 nM in test [4].
For `CC(C)c1cc(-c2ccc(F)c(F)c2)nn2cc(C(=O)N3CCN(C(=O)[C@H]4C[C@](O)(C(F)(F)F)C4)CC3(C)C)nc12` [Compound I-257], the IC50 in test [1] was 0.1 nM; in test [2] it was greater than 100 nM; in test [3], 0.2 nM; in test [4] it was greater than 100 nM.
As to `CC(C)c1cc(-c2ccc(F)c(F)c2)nn2cc(C(=O)N3CCN(C(=O)c4ccn[nH]4)CC3(C)C)nc12` [Compound I-258], the IC50 in test [1] is 1.7 nM; in test [2] it was greater than 1000 nM; in test [3], 1.9 nM; in test [4] it was greater than 1000 nM.
Consider `CC(C)c1cc(-c2ccc(F)c(F)c2)nn2cc(C(=O)N3CCN(C(=O)c4ccncn4)CC3(C)C)nc12` [Compound I-259], for which the IC50 in test [1] was 6.2 nM; in test [2] it was greater than 1000 nM; in test [3], 16.5 nM; in test [4], greater than 1000 nM.
On to `Cc1cc(-c2cc(C(C)C)c3nc(C(=O)N4CCN(C(=O)[C@H]5C[C@](O)(C(F)(F)F)C5)CC4(C)C)cn3n2)ccc1F` [Compound I-260], for which the IC50 in test [1] is 0.7 nM; in test [2], greater than 100 nM; in test [3], 1.1 nM; in test [4], greater than 100 nM.
